The record followed here is patent US9334246B2, “Substituted triazines for malaria treatment and chemoprophylaxis” (The United States of America, as represented by the …, priority 2013, dated 2016).

Values after ≈ are worked out from the molar mass of the structure shown.

One data set concerns P. falciparum D6. The data set can be described thus: Malaria SYBR Green Fluorescence Assay, D6 strain. The class given is cell-based, Plasmodium falciparum.
A further data set relates to P. falciparum W2. Kind of data set: Malaria SYBR Green Fluorescence Assay, W2 strain. It counts as cell-based, Plasmodium falciparum.
In the next data set the test system is P. falciparum C235. The data set can be described thus: Malaria SYBR Green Fluorescence Assay, C235 strain. The class given is cell-based, Plasmodium falciparum.
The test system of another data set is P. berghei. Kind of data set: Thompson Test, in vivo mouse malaria assay. More on the design: species or system mice (ICR strain).
Data set [1] deals with hERG potassium ion channel (Homo sapiens, UniProt Q12809). The data set can be described thus: hERG patch clamp assay (% inhibition at 10 μM). Particulars: for hERG (% inhibition): 10 μM. A general note: hERG is a cardiac potassium channel; its block is linked to QT prolongation.
Chain of hERG potassium ion channel (Q12809 whole entry): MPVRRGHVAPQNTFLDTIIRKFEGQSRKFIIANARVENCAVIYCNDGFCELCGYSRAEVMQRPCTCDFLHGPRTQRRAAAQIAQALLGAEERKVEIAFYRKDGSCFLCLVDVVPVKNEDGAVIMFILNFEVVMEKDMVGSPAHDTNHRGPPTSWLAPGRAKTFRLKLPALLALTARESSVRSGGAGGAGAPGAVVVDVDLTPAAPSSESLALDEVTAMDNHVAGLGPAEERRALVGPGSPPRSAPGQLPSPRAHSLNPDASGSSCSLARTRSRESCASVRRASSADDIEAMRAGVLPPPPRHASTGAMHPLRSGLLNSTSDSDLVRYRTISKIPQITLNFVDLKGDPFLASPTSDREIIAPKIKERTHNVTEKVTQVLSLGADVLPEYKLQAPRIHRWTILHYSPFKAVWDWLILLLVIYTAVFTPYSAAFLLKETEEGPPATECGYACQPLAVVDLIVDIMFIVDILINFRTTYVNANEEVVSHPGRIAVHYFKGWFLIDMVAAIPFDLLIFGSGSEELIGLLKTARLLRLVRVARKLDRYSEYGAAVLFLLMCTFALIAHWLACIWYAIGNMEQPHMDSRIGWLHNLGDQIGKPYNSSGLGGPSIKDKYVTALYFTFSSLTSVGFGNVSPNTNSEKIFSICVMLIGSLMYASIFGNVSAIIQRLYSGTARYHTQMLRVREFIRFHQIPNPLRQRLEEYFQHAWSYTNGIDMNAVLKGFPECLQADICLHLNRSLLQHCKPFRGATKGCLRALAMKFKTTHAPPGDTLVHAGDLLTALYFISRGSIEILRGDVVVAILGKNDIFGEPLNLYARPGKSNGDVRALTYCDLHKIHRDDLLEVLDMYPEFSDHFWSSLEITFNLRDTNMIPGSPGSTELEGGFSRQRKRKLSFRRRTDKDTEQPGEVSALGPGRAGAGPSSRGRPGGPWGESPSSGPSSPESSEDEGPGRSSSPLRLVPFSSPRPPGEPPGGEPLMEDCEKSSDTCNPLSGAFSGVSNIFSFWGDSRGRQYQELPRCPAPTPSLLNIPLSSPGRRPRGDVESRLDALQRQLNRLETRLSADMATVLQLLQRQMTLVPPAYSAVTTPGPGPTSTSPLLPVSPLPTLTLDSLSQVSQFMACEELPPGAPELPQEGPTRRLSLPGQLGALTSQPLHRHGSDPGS
The mark [2] stands for this setting: % inhibition at 10 μM, patch clamp.
Where [3] appears, read: (160 × 3): 160 mg/kg for 3 days.
Where [4] appears, read: Plasmodium falciparum, SYBR Green Assay.

`CS(=O)(=O)c1ccc(-c2nc(N3CCCNCC3)nc(C(Cl)(Cl)Cl)n2)cc1` [Compound 96] gave a D6 in the data set with P. falciparum D6 (SYBR Green Assay) of 70 ng/mL. The W2 in the data set on P. falciparum W2 (SYBR Green Assay) stood at 51 ng/mL. Further, in the data set with P. falciparum C235 (SYBR Green Assay), the C235 stood at 96 ng/mL. Also, in the data set on P. berghei ((80 × 3): 80 mg/kg for 3 days), the “In vivo Results Thompson Assay (n/N Cures or Suppressive)” value (“In vivo Results Thompson Assay” for short) was “(80 × 3) Suppressive”. The compound also returned a hERG in data set [1] (setting [2]) of 65%.

The compound `CC(C)(N)CNc1nc(-c2ccc(S(C)(=O)=O)cc2)nc(C(Cl)(Cl)Cl)n1` [Compound 97] showed a D6 in the data set with P. falciparum D6 (SYBR Green Assay) of 26 ng/mL. The compound also showed a W2 in the data set with P. falciparum W2 (SYBR Green Assay) of 20 ng/mL. The compound also registered a C235 with P. falciparum C235 (SYBR Green Assay) of 33 ng/mL. The “In vivo Results Thompson Assay” value with P. berghei ((80 × 3): 80 mg/kg for 3 days) was “(80 × 3) Suppressive;”; in the data set with P. berghei (setting [3]) it was “(160 × 3) Suppressive”. In addition, the hERG in data set [1] (setting [2]) is reported as 35%.

On to `CN1CCN(c2nc(-c3ccc(C(Cl)(Cl)Cl)cc3)nc(C(Cl)(Cl)Cl)n2)CC1` [Compound 99], for which the D6 with P. falciparum D6 (SYBR Green Assay) amounted to 59 ng/mL. The compound also came in with a W2 in the data set on P. falciparum W2 (SYBR Green Assay) of 12 ng/mL. Besides, in the data set on P. falciparum C235 (SYBR Green Assay), the C235 is given as 21 ng/mL. Moreover, in the data set on P. berghei ((80 × 3): 80 mg/kg for 3 days), the “In vivo Results Thompson Assay” value is recorded as “(80 × 3) Suppressive”. Moreover, in data set [1] (setting [2]), the hERG worked out at 16%.

For the compound `Cc1ccc(-c2nc(N3CCCNCC3)nc(C(Cl)(Cl)Cl)n2)cc1` [Compound 102], the D6 in the data set with P. falciparum D6 (SYBR Green Assay) worked out at 58 ng/mL. This compound came in with a W2 in the data set on P. falciparum W2 (SYBR Green Assay) of 44 ng/mL. This compound registered a C235 in the data set on P. falciparum C235 (SYBR Green Assay) of 48 ng/mL. The “In vivo Results Thompson Assay” value with P. berghei ((80 × 3): 80 mg/kg for 3 days) is “(80 × 3) Suppressive”. This compound came in with a hERG in data set [1] (setting [2]) of 47%.

As for `FC(F)(F)c1cccc(-c2nc(N3CCCNCC3)nc(C(Cl)(Cl)Cl)n2)c1` [Compound 108], in the data set on P. falciparum D6 (SYBR Green Assay), the D6 worked out at 70 ng/mL. The compound further yielded a W2 with P. falciparum W2 (SYBR Green Assay) of 47 ng/mL. The compound also yielded a C235 in the data set on P. falciparum C235 (SYBR Green Assay) of 82 ng/mL. Further, the “In vivo Results Thompson Assay” value in the data set with P. berghei ((80 × 3): 80 mg/kg for 3 days) is on record as “(80 × 3) Suppressive”. Moreover, in data set [1] (setting [2]), the hERG is 28%.

For the compound `CN1CCCN(c2nc(-c3ccc(Cl)c(Cl)c3)nc(C(Cl)(Cl)Cl)n2)CC1` [Compound 113], in the data set on P. falciparum D6 (SYBR Green Assay), the D6 stood at 33 ng/mL. This compound displayed a W2 with P. falciparum W2 (SYBR Green Assay) of 23 ng/mL. In addition, in the data set with P. falciparum C235 (SYBR Green Assay), the C235 is 35 ng/mL. Moreover, the results for the “In vivo Results Thompson Assay” value in the data set on P. berghei ((80 × 3): 80 mg/kg for 3 days) and in the data set on P. berghei (setting [3]) were “Suppressive” and 4/5, respectively. The compound also showed a hERG in data set [1] (setting [2]) of 64%.

As for `OCCN1CCN(c2nc(-c3ccc(C(Cl)(Cl)Cl)cc3)nc(C(Cl)(Cl)Cl)n2)CC1` [Compound 119], in the data set with P. falciparum D6 (SYBR Green Assay), the D6 amounted to 29 ng/mL. In the data set with P. falciparum W2 (SYBR Green Assay), this compound registered a W2 of 12 ng/mL. The C235 in the data set with P. falciparum C235 (SYBR Green Assay) is given as 46 ng/mL. For the same compound, the figures for the “In vivo Results Thompson Assay” value with P. berghei ((40 × 3): 40 mg/kg for 3 days) and in the data set on P. berghei ((80 × 3): 80 mg/kg for 3 days) were 1/5 and 4/5, respectively. Also, the hERG in data set [1] (setting [2]) is 18%.

As for `COc1cccc(-c2nc(NC3CCN(C)CC3)nc(C(Cl)(Cl)Cl)n2)c1` [Compound 193], the D6 with P. falciparum D6 (SYBR Green Assay) worked out at 29 ng/mL. The W2 in the data set with P. falciparum W2 (SYBR Green Assay) was found to be 22 ng/mL. This compound registered a C235 in the data set on P. falciparum C235 (SYBR Green Assay) of 17 ng/mL. For the same compound, the “In vivo Results Thompson Assay” value with P. berghei ((80 × 3): 80 mg/kg for 3 days) is “(80 × 3) Suppressive”. This compound also returned a hERG in data set [1] (setting [2]) of 93%.

For `CC(C)(N)CNc1nc(-c2cc(Cl)cc(Cl)c2)nc(C(Cl)(Cl)Cl)n1` [Compound 195], the D6 with P. falciparum D6 (SYBR Green Assay) is 6 ng/mL. This compound also gave a W2 in the data set on P. falciparum W2 (SYBR Green Assay) of 6 ng/mL. Further, in the data set with P. falciparum C235 (SYBR Green Assay), the C235 is given as 3 ng/mL. Also, the “In vivo Results Thompson Assay” value is 2/5 in the data set with P. berghei ((40 × 3): 40 mg/kg for 3 days), 5/5 in the data set on P. berghei ((80 × 3): 80 mg/kg for 3 days) and “Cures; (160 × 3) 5/5 Cures” in the data set on P. berghei (setting [3]). The compound also displayed a hERG in data set [1] (setting [2]) of 3%.

Compound `CC(C)(N)CNc1nc(-c2cccc(C(F)(F)F)c2)nc(C(Cl)(Cl)Cl)n1` [Compound 214] displayed a D6 with P. falciparum D6 (SYBR Green Assay) of 19 ng/mL. In addition, in the data set with P. falciparum W2 (SYBR Green Assay), the W2 was 11 ng/mL. The C235 with P. falciparum C235 (SYBR Green Assay) was 10 ng/mL. The “In vivo Results Thompson Assay” value in the data set with P. berghei ((40 × 3): 40 mg/kg for 3 days) is recorded as 2/5; in the data set with P. berghei ((80 × 3): 80 mg/kg for 3 days), 5/5. This compound came in with a hERG in data set [1] (setting [2]) of 42%.

On to `ClC(Cl)(Cl)c1nc(-c2ccc3ccccc3c2)nc(N2CCCNCC2)n1` [Compound 227], for which the D6 in the data set on P. falciparum D6 (SYBR Green Assay) stood at 29 ng/mL. Moreover, in the data set on P. falciparum W2 (SYBR Green Assay), the W2 turned out to be 10 ng/mL. In the data set with P. falciparum C235 (SYBR Green Assay), this compound had a C235 of 12 ng/mL. Also, the “In vivo Results Thompson Assay” value with P. berghei ((80 × 3): 80 mg/kg for 3 days) was “(80 × 3) 2/5 Cures”. This compound also yielded a hERG in data set [1] (setting [2]) of 18%.

Consider `CC(C)(N)CNc1nc(-c2ccccc2)nc(C(Cl)(Cl)Cl)n1` [Compound 312], for which the D6 in the data set on P. falciparum D6 (SYBR Green Assay) was 8 ng/mL. The compound also showed a W2 with P. falciparum W2 (SYBR Green Assay) of 3 ng/mL. In the data set on P. falciparum C235 (SYBR Green Assay), this compound gave a C235 of 18 ng/mL. Moreover, the “In vivo Results Thompson Assay” value in the data set on P. berghei ((40 × 3): 40 mg/kg for 3 days) is “Suppressive”; in the data set on P. berghei ((80 × 3): 80 mg/kg for 3 days), “(80 × 3) 3/3 Cures;(40 × 3)”. The compound further yielded a hERG in data set [1] (setting [2]) of 65%.

Regarding `CC(C)(C)c1ccc(-c2nc(NCC3(N)CCOCC3)nc(C(Cl)(Cl)Cl)n2)cc1` [Compound 314], the D6 in the data set with P. falciparum D6 (SYBR Green Assay) came out at 7 ng/mL. This compound also registered a W2 in the data set with P. falciparum W2 (SYBR Green Assay) of 2 ng/mL. For the same compound, in the data set with P. falciparum C235 (SYBR Green Assay), the C235 turned out to be 16 ng/mL. In addition, the “In vivo Results Thompson Assay” value with P. berghei ((80 × 3): 80 mg/kg for 3 days) was “(80 × 3) Suppressive”. This compound also returned a hERG in data set [1] (setting [2]) of 5%.

For `COc1ccc(-c2nc(NC3CC(C)(C)NC(C)(C)C3)nc(C(Cl)(Cl)Cl)n2)cc1OC` [Compound 328], the D6 in the data set on P. falciparum D6 (SYBR Green Assay) is given as 64 ng/mL. In addition, the W2 with P. falciparum W2 (SYBR Green Assay) was 40 ng/mL. Besides, the C235 with P. falciparum C235 (SYBR Green Assay) came out at 84 ng/mL. Moreover, in the data set on P. berghei ((80 × 3): 80 mg/kg for 3 days), the “In vivo Results Thompson Assay” value is recorded as “(80 × 3) 2/5 Cures”. For the same compound, the hERG in data set [1] (setting [2]) was 31%.

Consider `CCC(N)(CC)CNc1nc(-c2ccc(S(C)(=O)=O)cc2)nc(C(Cl)(Cl)Cl)n1` [Compound 365], for which the “D6 (SYBR Green Assay IC50)” value in the data set on P. falciparum D6 was determined as 0.005 µg/mL. The “W2 (SYBR Green Assay IC50)” value in the data set on P. falciparum W2 stood at 0.005 µg/mL. Further, the “C235 (SYBR Green Assay IC50)” value in the data set with P. falciparum C235 came to 0.01 µg/mL. For the same compound, in the data set with P. berghei ((80 × 3): 80 mg/kg for 3 days), the “In vivo Results Thompson Assay” value was “(80 × 3) Suppressive”. For the same compound, the “hERG (% inhibition)” value in data set [1] is given as 69%.

`CS(=O)(=O)c1ccc(-c2nc(N3CC4CC3CN4)nc(C(Cl)(Cl)Cl)n2)cc1` (centres unmarked) [Compound 724, CS(═O)(═O)c1ccc(cc1)c2nc(nc(n2)C(Cl)(Cl)Cl)N3CC4CC3CN4]: the D6 with P. falciparum D6 (SYBR Green Assay) came to 106 ng/mL. For the same compound, in the data set with P. falciparum W2 (SYBR Green Assay), the W2 worked out at 71 ng/mL. The C235 in the data set with P. falciparum C235 (SYBR Green Assay) came to 110 ng/mL. Besides, in the data set on P. berghei ((80 × 3): 80 mg/kg for 3 days), the “In vivo Results Thompson Assay” value is “(80 × 3) Suppressive”. In data set [1] (hERG activity as % inhibition), this compound showed a hERG of 70%.

As to `FC(F)(F)c1cccc(-c2nc(N3CC4CC3CN4)nc(C(Cl)(Cl)Cl)n2)c1` (centres unmarked) [Ex. 7, 2-(4-(trichloromethyl)-6-(3-(trifluoromethyl)phenyl)-1,3,5-triazin-2-yl)-2,5-diazabicyclo[2.2.1]heptane], the half-inhibitory concentration (IC50) in the data set on P. falciparum D6 (setting [4]) amounted to 0.106 µg/mL (≈ 0.242 µM); in the data set with P. falciparum W2 (setting [4]), 0.126 µg/mL (≈ 0.287 µM); with P. falciparum C235 (setting [4]), 0.192 µg/mL (≈ 0.438 µM). In addition, the results for the “In vivo Results Thompson Assay” value in the data set with P. berghei ((80 × 3): 80 mg/kg for 3 days) and in the data set on P. berghei (setting [3]) were “Suppressive” and 4/5, respectively. For the same compound, the hERG in data set [1] (hERG activity as % inhibition) was 29%.

As to “CCN1CCC(CC1)C(C)Nc2nc(Nc3ccc(Cl)c(Cl)c3)nc(n2)C(Cl)(Cl)Cl [Compound 643]”, the “D6 (SYBR Green Assay IC50)” value with P. falciparum D6 is 0.047 µg/mL. Besides, the “W2 (SYBR Green Assay IC50)” value in the data set on P. falciparum W2 is 0.033 µg/mL. Moreover, the “C235 (SYBR Green Assay IC50)” value in the data set with P. falciparum C235 came out at 0.048 µg/mL. The “In vivo Results Thompson Assay” value in the data set with P. berghei ((80 × 3): 80 mg/kg for 3 days) is recorded as “(80 × 3) 2/5 Cures”. Also, the “hERG (% inhibition)” value in data set [1] was determined as 100%.

For orientation: IC50 means the concentration needed to halve the response being measured.
